Experimental data taken from paper PMC8854719, “Phase 1A/1B dose-escalation and -expansion study to evaluate the safety, pharmacokinetics, food effects and antitumor activity of pamiparib in advanced solid tumours” (British Journal of Cancer, 2021).
Marks after values point to notes of the source that are not given here.

Test: Safety and tolerability: adverse events, dose-limiting toxicities, MTD, RP2D (Phase 1A/1B)
Assay type: in vivo
Experimental: This was an open-label, Phase 1, dose-escalation/dose-expansion study, conducted across six study centres in Australia. The dose-escalation phase evaluated twice-daily (BID) and once-daily (QD) dosing, and the dose-expansion phase evaluated the BID RP2D from the dose-escalation phase and food effects (Fig. 1). The food-effects cohort comprised two sequences: fast followed by fed (sequence 1) and fed followed by fast (sequence 2). […] The decision to proceed to the next dose cohort was determined by the Safety Monitoring Committee and followed a modified 3 + 3 escalation scheme. […] When ≥2 DLTs occurred in the first 23 days of a dose level, the next lower dose level was declared the MTD. Safety was monitored and DLTs were assessed in all dose cohorts. […] The food-effects cohort investigated the effects of food on the PK of pamiparib in patients with advanced solid tumours.
The QD dosing regimen was added as an amendment to the protocol with the purpose of exploring the feasibility of a more convenient regimen.
Safety and tolerability were assessed throughout the study by monitoring adverse events (AEs), serious AEs, clinical laboratory measurements and physical examinations. Adverse events were categorised according to their severity (National Cancer Institute Common Terminology Criteria for Adverse Events v4.03) and relationship to the study treatment.

SMILES: C[C@]12CCCN1CC1=NNC(=O)c3cc(F)cc4[nH]c2c1c34 [pamiparib]
- Ascites, AE of any grade (80 mg BID (n = 10)): 1 (10.0) n (%)
- Back pain, AE of any grade (80 mg BID (n = 10)): 0 (0.0) n (%)
- Constipation, AE of any grade (80 mg BID (n = 10)): 4 (40.0) n (%)
- Cough, AE of any grade (80 mg BID (n = 10)): 1 (10.0) n (%)
- Decreased appetite, AE of any grade (80 mg BID (n = 10)): 2 (20.0) n (%)
- Diarrhoea, AE of any grade (80 mg BID (n = 10)): 1 (10.0) n (%)
- Dose-limiting toxicity (80 mg BID (n = 10)): 1 (10.0)^b n (%)
- Dyspnoea, AE of any grade (80 mg BID (n = 10)): 0 (0.0) n (%)
- Fatigue, AE of any grade (80 mg BID (n = 10)): 4 (40.0) n (%)
- Headache, AE of any grade (80 mg BID (n = 10)): 0 (0.0) n (%)
- Hypoalbuminemia, AE of any grade (80 mg BID (n = 10)): 0 (0.0) n (%)
- Hypomagnesemia, AE of any grade (80 mg BID (n = 10)): 2 (20.0) n (%)
- Hypophosphatemia, AE of any grade (80 mg BID (n = 10)): 0 (0.0) n (%)
- Increased AST, AE of any grade (80 mg BID (n = 10)): 0 (0.0) n (%)
- Muscle spasms, AE of any grade (80 mg BID (n = 10)): 1 (10.0) n (%)
- Nausea, AE of any grade (80 mg BID (n = 10)): 8 (80.0) n (%)
- Neutropenia, AE of any grade (80 mg BID (n = 10)): 3 (30.0) n (%)
- Non-cardiac chest pain, AE of any grade (80 mg BID (n = 10)): 1 (10.0) n (%)
- Pain in extremity, AE of any grade (80 mg BID (n = 10)): 0 (0.0) n (%)
- Peripheral sensory neuropathy, AE of any grade (80 mg BID (n = 10)): 0 (0.0) n (%)
- Pleural effusion, AE of any grade (80 mg BID (n = 10)): 0 (0.0) n (%)
- Pyrexia, AE of any grade (80 mg BID (n = 10)): 1 (10.0) n (%)
- Treatment-emergent AE (80 mg BID (n = 10)): 10 (100.0) n (%)
- Treatment-emergent AE: Grade 3 or higher (80 mg BID (n = 10)): 4 (40.0) n (%)
- Treatment-emergent AE: Leading to death (80 mg BID (n = 10)): 1 (10.0) n (%)
- Treatment-emergent AE: Leading to dose interruption (80 mg BID (n = 10)): 5 (50.0) n (%)
- Treatment-emergent AE: Leading to dose modification (80 mg BID (n = 10)): 5 (50.0) n (%)
- Treatment-emergent AE: Leading to dose reduction (80 mg BID (n = 10)): 1 (10.0) n (%)
- Treatment-emergent AE: Leading to treatment discontinuation (80 mg BID (n = 10)): 0 (0.0) n (%)
- Treatment-emergent AE: Serious (80 mg BID (n = 10)): 3 (30.0) n (%)
- Treatment-related AE (80 mg BID (n = 10)): 9 (90.0) n (%)
- Treatment-related AE: Grade 3 or higher (80 mg BID (n = 10)): 3 (30.0) n (%)
- Treatment-related AE: Leading to death (80 mg BID (n = 10)): 0 (0.0) n (%)
- Treatment-related AE: Leading to dose interruption (80 mg BID (n = 10)): 5 (50.0) n (%)
- Treatment-related AE: Leading to dose modification (80 mg BID (n = 10)): 5 (50.0) n (%)
- Treatment-related AE: Leading to dose reduction (80 mg BID (n = 10)): 1 (10.0) n (%)
- Treatment-related AE: Leading to treatment discontinuation (80 mg BID (n = 10)): 0 (0.0) n (%)
- Treatment-related AE: Serious (80 mg BID (n = 10)): 1 (10.0) n (%)
- Upper respiratory tract infection, AE of any grade (80 mg BID (n = 10)): 5 (50.0) n (%)
- Urinary tract infection, AE of any grade (80 mg BID (n = 10)): 2 (20.0) n (%)
- Vomiting, AE of any grade (80 mg BID (n = 10)): 2 (20.0) n (%)
- Dose-limiting toxicities observed (description) (80 mg BID, n = 1): Grade 2 nausea
- Abdominal pain, AE of any grade (120 mg BID (n = 5)): 0 (0.0) n (%)
- Anaemia, AE of any grade (120 mg BID (n = 5)): 3 (60.0) n (%)
- Ascites, AE of any grade (120 mg BID (n = 5)): 0 (0.0) n (%)
- Back pain, AE of any grade (120 mg BID (n = 5)): 1 (20.0) n (%)
- Constipation, AE of any grade (120 mg BID (n = 5)): 0 (0.0) n (%)
- Cough, AE of any grade (120 mg BID (n = 5)): 1 (20.0) n (%)
- Decreased appetite, AE of any grade (120 mg BID (n = 5)): 2 (40.0) n (%)
- Diarrhoea, AE of any grade (120 mg BID (n = 5)): 2 (40.0) n (%)
- Dose-limiting toxicity (120 mg BID (n = 5)): 2 (40.0)^c n (%)
- Dyspnoea, AE of any grade (120 mg BID (n = 5)): 0 (0.0) n (%)
- Fatigue, AE of any grade (120 mg BID (n = 5)): 2 (40.0) n (%)
- Headache, AE of any grade (120 mg BID (n = 5)): 0 (0.0) n (%)
- Hypoalbuminemia, AE of any grade (120 mg BID (n = 5)): 0 (0.0) n (%)
- Hypomagnesemia, AE of any grade (120 mg BID (n = 5)): 0 (0.0) n (%)
- Hypophosphatemia, AE of any grade (120 mg BID (n = 5)): 1 (20.0) n (%)
- Increased AST, AE of any grade (120 mg BID (n = 5)): 1 (20.0) n (%)
- Muscle spasms, AE of any grade (120 mg BID (n = 5)): 0 (0.0) n (%)
- Nausea, AE of any grade (120 mg BID (n = 5)): 4 (80.0) n (%)
- Neutropenia, AE of any grade (120 mg BID (n = 5)): 1 (20.0) n (%)
- Non-cardiac chest pain, AE of any grade (120 mg BID (n = 5)): 1 (20.0) n (%)
- Pain in extremity, AE of any grade (120 mg BID (n = 5)): 1 (20.0) n (%)
- Peripheral sensory neuropathy, AE of any grade (120 mg BID (n = 5)): 0 (0.0) n (%)
- Pleural effusion, AE of any grade (120 mg BID (n = 5)): 1 (20.0) n (%)
